Tested on: MIA PaCa-2 cells
Experiment: DNA microarray analysis (Affymetrix Human PrimeView);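 as to Mean (MiaPaca-2 * PA): Log2-transformed RMA normalized probe set signal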
Format: cell-based
[1] = gene ATF3, probeset 11753632_x_at
[2] = gene C3orf52, probeset 11724431_at
[3] = gene C3orf59, probeset 11722936_at
[4] = gene C17orf91, probeset 11740895_a_at
[5] = gene C17orf91, probeset 11740896_s_at
[6] = gene CASP1, probeset 11750553_x_at
[7] = gene CCNE2, probeset 11728301_a_at
[8] = gene CD83, probeset 11743000_at
[9] = gene CDCP1, probeset 11732062_a_at
[10] = gene CDKN1A, probeset 11715387_at
[11] = gene CEBPG, probeset 11717693_at
[12] = gene CTGF, probeset 11715440_a_at
[13] = gene CTPS, probeset 11747890_a_at
[14] = gene CTSC, probeset 11731465_a_at
[15] = gene DDIT3, probeset 11758198_s_at
[16] = gene DNAJB1, probeset 11715445_a_at
[17] = gene DNAJB1, probeset 11715446_a_at
[18] = gene EGR1, probeset 11717862_x_at
[19] = gene EGR1, probeset 11754334_s_at
[20] = gene EGR3, probeset 11736342_at
[21] = gene EIF4A2, probeset 11760707_a_at
[22] = gene EIF4A2, probeset 11760708_at
[23] = gene FOS, probeset 11734659_a_at
[24] = gene FOSL1, probeset 11760574_x_at
[25] = gene HKDC1, probeset 11722519_at
[26] = gene HKDC1, probeset 11722521_at

## C=C(CC[C@@H](C(=O)O)[C@H]1[C@H](O)C[C@@]2(C)C3=C(CC[C@]12C)[C@@]1(C)CC[C@H](OC(C)=O)C(C)(C)[C@@H]1CC3)C(C)C [PA, Pachymic acid]
Gene AEN, probeset 11754296_a_at, MiaPaca-2
  Fold-Change (MiaPaca-2 * PA vs. MiaPaca-2 * control): 1.50
Gene AEN, probeset 11754296_a_at, MiaPaca-2, PA-treated
  Mean (MiaPaca-2 * PA): 8.26
[1]
  Fold-Change (MiaPaca-2 * PA vs. MiaPaca-2 * control): 1.60
  Mean (MiaPaca-2 * PA): 5.51
[2]
  Fold-Change (MiaPaca-2 * PA vs. MiaPaca-2 * control): 1.60
  Mean (MiaPaca-2 * PA): 7.34
[3]
  Fold-Change (MiaPaca-2 * PA vs. MiaPaca-2 * control): 1.55
  Mean (MiaPaca-2 * PA): 8.02
Gene C6orf145, probeset 11754483_a_at, MiaPaca-2
  Fold-Change (MiaPaca-2 * PA vs. MiaPaca-2 * control): 1.51
Gene C6orf145, probeset 11754483_a_at, MiaPaca-2, PA-treated
  Mean (MiaPaca-2 * PA): 7.32
[4]
  Fold-Change (MiaPaca-2 * PA vs. MiaPaca-2 * control): 1.61
  Mean (MiaPaca-2 * PA): 7.42
[5]
  Fold-Change (MiaPaca-2 * PA vs. MiaPaca-2 * control): 1.67
  Mean (MiaPaca-2 * PA): 7.56
Gene CAMTA1, probeset 11723154_s_at, MiaPaca-2
  Fold-Change (MiaPaca-2 * PA vs. MiaPaca-2 * control): 1.52
Gene CAMTA1, probeset 11723154_s_at, MiaPaca-2, PA-treated
  Mean (MiaPaca-2 * PA): 6.50
Gene CAPRIN2, probeset 11749098_a_at, MiaPaca-2
  Fold-Change (MiaPaca-2 * PA vs. MiaPaca-2 * control): 1.50
Gene CAPRIN2, probeset 11749098_a_at, MiaPaca-2, PA-treated
  Mean (MiaPaca-2 * PA): 8.43
Gene CASP1, probeset 11738884_x_at, MiaPaca-2
  Fold-Change (MiaPaca-2 * PA vs. MiaPaca-2 * control): 1.53
Gene CASP1, probeset 11738884_x_at, MiaPaca-2, PA-treated
  Mean (MiaPaca-2 * PA): 7.07
[6]
  Fold-Change (MiaPaca-2 * PA vs. MiaPaca-2 * control): 1.55
  Mean (MiaPaca-2 * PA): 7.39
[7]
  Fold-Change (MiaPaca-2 * PA vs. MiaPaca-2 * control): 1.56
  Mean (MiaPaca-2 * PA): 6.40
[8]
  Fold-Change (MiaPaca-2 * PA vs. MiaPaca-2 * control): 1.58
  Mean (MiaPaca-2 * PA): 7.70
Gene CDC25A, probeset 11726757_s_at, MiaPaca-2
  Fold-Change (MiaPaca-2 * PA vs. MiaPaca-2 * control): 1.51
Gene CDC25A, probeset 11726757_s_at, MiaPaca-2, PA-treated
  Mean (MiaPaca-2 * PA): 7.92
[9]
  Fold-Change (MiaPaca-2 * PA vs. MiaPaca-2 * control): 1.58
  Mean (MiaPaca-2 * PA): 6.86
[10]
  Fold-Change (MiaPaca-2 * PA vs. MiaPaca-2 * control): 1.56
  Mean (MiaPaca-2 * PA): 6.94
[11]
  Fold-Change (MiaPaca-2 * PA vs. MiaPaca-2 * control): 1.57
  Mean (MiaPaca-2 * PA): 9.81
Gene CEBPG, probeset 11717694_a_at, MiaPaca-2
  Fold-Change (MiaPaca-2 * PA vs. MiaPaca-2 * control): 1.51
Gene CEBPG, probeset 11717694_a_at, MiaPaca-2, PA-treated
  Mean (MiaPaca-2 * PA): 8.37
Gene CIDEB, probeset 11752838_s_at, MiaPaca-2
  Fold-Change (MiaPaca-2 * PA vs. MiaPaca-2 * control): 1.52
Gene CIDEB, probeset 11752838_s_at, MiaPaca-2, PA-treated
  Mean (MiaPaca-2 * PA): 5.52
[12]
  Fold-Change (MiaPaca-2 * PA vs. MiaPaca-2 * control): 1.65
  Mean (MiaPaca-2 * PA): 5.48
[13]
  Fold-Change (MiaPaca-2 * PA vs. MiaPaca-2 * control): 1.56
  Mean (MiaPaca-2 * PA): 7.43
[14]
  Fold-Change (MiaPaca-2 * PA vs. MiaPaca-2 * control): 1.61
  Mean (MiaPaca-2 * PA): 7.37
[15]
  Fold-Change (MiaPaca-2 * PA vs. MiaPaca-2 * control): 1.54
  Mean (MiaPaca-2 * PA): 6.68
[16]
  Fold-Change (MiaPaca-2 * PA vs. MiaPaca-2 * control): 1.59
  Mean (MiaPaca-2 * PA): 10.46
[17]
  Fold-Change (MiaPaca-2 * PA vs. MiaPaca-2 * control): 1.56
  Mean (MiaPaca-2 * PA): 11.54
Gene DUSP2, probeset 11721695_s_at, MiaPaca-2
  Fold-Change (MiaPaca-2 * PA vs. MiaPaca-2 * control): 1.51
Gene DUSP2, probeset 11721695_s_at, MiaPaca-2, PA-treated
  Mean (MiaPaca-2 * PA): 7.47
Gene DUSP5, probeset 11717863_a_at, MiaPaca-2
  Fold-Change (MiaPaca-2 * PA vs. MiaPaca-2 * control): 1.52
Gene DUSP5, probeset 11717863_a_at, MiaPaca-2, PA-treated
  Mean (MiaPaca-2 * PA): 7.89
Gene DUSP6, probeset 11741980_a_at, MiaPaca-2
  Fold-Change (MiaPaca-2 * PA vs. MiaPaca-2 * control): 1.53
Gene DUSP6, probeset 11741980_a_at, MiaPaca-2, PA-treated
  Mean (MiaPaca-2 * PA): 10.54
[18]
  Fold-Change (MiaPaca-2 * PA vs. MiaPaca-2 * control): 1.65
  Mean (MiaPaca-2 * PA): 7.37
[19]
  Fold-Change (MiaPaca-2 * PA vs. MiaPaca-2 * control): 1.60
  Mean (MiaPaca-2 * PA): 10.76
[20]
  Fold-Change (MiaPaca-2 * PA vs. MiaPaca-2 * control): 1.55
  Mean (MiaPaca-2 * PA): 6.51
[21]
  Fold-Change (MiaPaca-2 * PA vs. MiaPaca-2 * control): 1.61
  Mean (MiaPaca-2 * PA): 10.11
[22]
  Fold-Change (MiaPaca-2 * PA vs. MiaPaca-2 * control): 1.66
  Mean (MiaPaca-2 * PA): 7.82
Gene EIF4A2 /// SNORA4, probeset 11757137_s_at, MiaPaca-2
  Fold-Change (MiaPaca-2 * PA vs. MiaPaca-2 * control): 1.51
Gene EIF4A2 /// SNORA4, probeset 11757137_s_at, MiaPaca-2, PA-treated
  Mean (MiaPaca-2 * PA): 5.63
Gene EREG, probeset 11763822_at, MiaPaca-2
  Fold-Change (MiaPaca-2 * PA vs. MiaPaca-2 * control): 1.52
Gene EREG, probeset 11763822_at, MiaPaca-2, PA-treated
  Mean (MiaPaca-2 * PA): 6.66
Gene FLJ36031, probeset 11739442_s_at, MiaPaca-2
  Fold-Change (MiaPaca-2 * PA vs. MiaPaca-2 * control): 1.53
Gene FLJ36031, probeset 11739442_s_at, MiaPaca-2, PA-treated
  Mean (MiaPaca-2 * PA): 8.29
[23]
  Fold-Change (MiaPaca-2 * PA vs. MiaPaca-2 * control): 1.61
  Mean (MiaPaca-2 * PA): 7.33
Gene FOSL1, probeset 11724479_x_at, MiaPaca-2
  Fold-Change (MiaPaca-2 * PA vs. MiaPaca-2 * control): 1.52
Gene FOSL1, probeset 11724479_x_at, MiaPaca-2, PA-treated
  Mean (MiaPaca-2 * PA): 6.50
[24]
  Fold-Change (MiaPaca-2 * PA vs. MiaPaca-2 * control): 1.56
  Mean (MiaPaca-2 * PA): 8.39
Gene GBP1, probeset 11726328_x_at, MiaPaca-2
  Fold-Change (MiaPaca-2 * PA vs. MiaPaca-2 * control): 1.50
Gene GBP1, probeset 11726328_x_at, MiaPaca-2, PA-treated
  Mean (MiaPaca-2 * PA): 5.03
Gene HERPUD1, probeset 11741510_a_at, MiaPaca-2
  Fold-Change (MiaPaca-2 * PA vs. MiaPaca-2 * control): 1.50
Gene HERPUD1, probeset 11741510_a_at, MiaPaca-2, PA-treated
  Mean (MiaPaca-2 * PA): 9.22
[25]
  Fold-Change (MiaPaca-2 * PA vs. MiaPaca-2 * control): 1.60
  Mean (MiaPaca-2 * PA): 8.79
[26]
  Fold-Change (MiaPaca-2 * PA vs. MiaPaca-2 * control): 1.59
  Mean (MiaPaca-2 * PA): 6.86
Gene HMOX1, probeset 11753446_x_at, MiaPaca-2
  Fold-Change (MiaPaca-2 * PA vs. MiaPaca-2 * control): 1.50
Gene HMOX1, probeset 11753446_x_at, MiaPaca-2, PA-treated
  Mean (MiaPaca-2 * PA): 6.67
